According to article PMC9610990, “Inhibitory Activity of Bioactive Phloroglucinols from the Rhizomes of Dryopteris crassirhizoma on Escherichia coli β-Glucuronidase: Kinetic Analysis and Molecular Docking Studies” (Metabolites, 2022):
Like-named read-outs stand apart in the source and are kept apart here.

What was measured:
[1] = tested on: neuraminidase of influenza virus H5N1; conditions: read-out: inhibitory effect on neuraminidase IC50; cited from earlier work
[2] = molecular target: T1, β-Glucuronidase from E. coli (Escherichia coli, UniProt P05804); assay: β-Glucuronidase inhibitory activity assay with PNPG substrate; conditions: for inhibition at 100 µM: read-out: Inhibition of Compounds on β-glucuronidase, Inhibition at 100 μM (%); for Inhibition of Compounds on β-glucuronidase, Inhibition at 100 μM (%): compound at 100 μM
[3] = molecular target: T1, β-Glucuronidase from E. coli; assay: Inhibition kinetic analysis with β-glucuronidase (Lineweaver–Burk and Dixon plots); type: biochemical; conditions: for Ki: determined by Dixon plots; for Inhibition Type: determined by Lineweaver–Burk plots
Experimental: To identify the inhibition mode of the active compounds on β-glucuronidase, two enzyme kinetic methodologies, the Lineweaver-Burk and Dixon methods, were used. The mode of β-glucuronidase inhibition was determined using a Lineweaver–Burk plot (or double reciprocal plot) at various concentrations of the substrate in the absence or presence of the test compound (concentrations: 0, 10, 20, 40, 60, and 80 µM for 13 and 15; 0, 7.5, 15, 30, 60, and 80 µM for 14; 0, 5, 10, 20, 40, and 60 µM for 26 and 27; and 0, 2.5, 5, 10, 20, and 40 µM for 28). The enzymatic reactions at various concentrations of the test compounds were evaluated by monitoring the effects of different substrate concentrations using Dixon plots (or single reciprocal plots) (0.25, 0.5, 1, and 2.5 mM). Ki values were determined by analyzing the Dixon plot, where the x-axis value was taken as Ki.

PTP1B enzyme = tested on: PTP1B enzyme; design: method as in PMID 34416263; conditions: in words; cited from earlier work
[4] = tested on: B16F10 murine melanoma cells; design: method as in doi:10.1016/j.phytol.2017.05.022; conditions: read-out: inhibition of melanin production IC50; cited from earlier work
[5] = PNPG substrate, mean ± SEM of three independent experiments
[6] = read-out: Inhibition of Compounds on β-glucuronidase, IC50, PNPG substrate, mean ± SEM of three independent experiments

T1 sequence (P05804 whole entry): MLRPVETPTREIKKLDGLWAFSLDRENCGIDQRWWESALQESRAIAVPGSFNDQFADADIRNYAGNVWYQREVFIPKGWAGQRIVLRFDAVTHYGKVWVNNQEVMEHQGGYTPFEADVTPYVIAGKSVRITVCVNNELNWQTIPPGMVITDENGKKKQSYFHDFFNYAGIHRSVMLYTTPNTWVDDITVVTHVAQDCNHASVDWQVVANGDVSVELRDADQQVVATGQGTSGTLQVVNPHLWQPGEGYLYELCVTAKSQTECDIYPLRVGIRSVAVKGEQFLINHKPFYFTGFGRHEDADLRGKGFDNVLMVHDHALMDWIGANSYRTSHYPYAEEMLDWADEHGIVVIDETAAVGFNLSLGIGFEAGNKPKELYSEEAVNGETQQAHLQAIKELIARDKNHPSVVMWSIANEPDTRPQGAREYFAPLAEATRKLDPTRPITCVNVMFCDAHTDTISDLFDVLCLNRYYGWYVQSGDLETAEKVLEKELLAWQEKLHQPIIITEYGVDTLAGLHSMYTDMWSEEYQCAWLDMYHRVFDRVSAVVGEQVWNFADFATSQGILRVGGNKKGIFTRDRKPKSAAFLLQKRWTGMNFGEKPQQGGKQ

For CCCC(=O)c1c(O)c(CC2=C(O)C(C)(C)C(O)=C(C(C)=O)C2=O)c(O)c(CC2=C(O)C(C)(C)C(O)=C(C(C)=O)C2=O)c1O [Compound 29, filixic acid ABA], which IC50 [1] is on record?
Its IC50 is 29.6 µM.

What about the IC50 [2] of the same compound?
Its IC50 is 90.5 ± 2.7 µM.

What about the inhibition at 100 µM [2] of the same compound?
Its inhibition at 100 µM is 53.4 ± 2.3%.

For CCCC(=O)c1c(O)c(CC2=C(O)C(C)(C)C(O)=C(C(C)=O)C2=O)c(O)c(Cc2c(O)c(CC3=C(O)C(C)(C)C(O)=C(C(C)=O)C3=O)c(O)c(C(=O)CCC)c2O)c1O [Compound 30, dryocrassin ABBA], which IC50 [2] is on record?
Its IC50 is 94.9 ± 2.5 µM.

What about the inhibition at 100 µM [2] of the same compound?
The inhibition at 100 µM was 51.8 ± 2.7%.

Which results are given for CCCC(=O)c1c(O)cc(O)c(Cc2c(O)c(CC3=C(O)C(C)(C)C(O)=C(C(C)=O)C3=O)c(O)c(C(=O)CCC)c2O)c1O [Compound 26, nortrisflavaspidic acid ABB]?
Ki [3]: 7.5 µM; Inhibition Type [3]: Competitive; IC50 [1]: 51.5 µM; activity toward the PTP1B enzyme (PTP1B enzyme): significant activity; IC50 [2]: 8 ± 1.8 µM; inhibition at 100 µM [2]: 98.1 ± 2.5%

Which Ki [3] does the source give for CCCC(=O)c1c(O)cc(O)c(Cc2c(O)cc(O)c(C(=O)CC)c2O)c1O [Compound 13, dryopidin PB] here?
Its Ki is 6.3 µM.

And the “Inhibition Type” value [3]?
The value was “Competitive”.

What about the IC50 [2] of the same compound?
Its IC50 is 18.1 ± 1.5 µM.

What about the inhibition at 100 µM [2] of the same compound?
Its inhibition at 100 µM is 93.7 ± 0.3%.

Which IC50 [2] does the source give for CCCC(=O)c1c(O)cc(O)c(CC2=C(O)C(C)(C)C(O)=C(C(C)=O)C2=O)c1O [Compound 17, norflavaspidic acid AB] here?
The IC50 was 67 ± 1.3 µM.

What about the inhibition at 100 µM [2] of the same compound?
Its inhibition at 100 µM is 65.1 ± 0.1%.

With CCCC(=O)C1=C(O)C(C)(C)C(O)=C(Cc2c(O)cc(O)c(C(=O)CCC)c2O)C1=O [Compound 19, norflavaspidic acid BB] as the compound, how does the IC50 [2] read?
Its IC50 is greater than 100 µM.

What about the inhibition at 100 µM [2] of the same compound?
The inhibition at 100 µM was 41 ± 1.4%.

Which results are given for CCCC(=O)c1c(O)c(CC2=C(O)C(C)(C)C(O)=C(C(C)=O)C2=O)c(O)c(C2CCCN2C(=N)N)c1O (centres unmarked) [Compound 25, dryopcrassirine AB]?
IC50 [2]: > 100 µM; inhibition at 100 µM [2]: 30.7 ± 1.7%

What does the source list for CC(=O)C1=C(O)C(C)(C)C(O)=C(Cc2c(O)c(C)c(O)c(C(C)=O)c2O)C1=O [Compound 20, flavaspidic acid AA]?
IC50 [2]: 75.7 ± 1.2 µM; inhibition at 100 µM [2]: 76.1 ± 3.4%

What does the source list for CCCC(=O)c1c(O)cc(O)c(CC2=C(O)C(C)(C)C(O)=C(C(=O)CC)C2=O)c1O [Compound 18, norflavaspidic acid PB]?
IC50 [4]: 35.7 µM; IC50 [2]: > 100 µM; inhibition at 100 µM [2]: 42.2 ± 0.1%

With CCCC(=O)c1c(O)c(C)c(O)c(CC2=C(O)C(C)(C)C(O)=C(C(=O)CC)C2=O)c1O [Compound 23, flavaspidic acid PB] as the compound, how does the IC50 [4] read?
Its IC50 is 38.9 µM.

What about the IC50 [2] of the same compound?
The IC50 was 76.5 ± 1.5 µM.

What about the inhibition at 100 µM [2] of the same compound?
Its inhibition at 100 µM is 73.5 ± 0.7%.

Which results are given for CCCC(=O)c1c(O)c(C(=O)CCC)c(O)c(C(=O)CCC)c1O [Compound 11, tributyrylphloroglucinol]?
IC50 [2]: 43 ± 2.9 µM; inhibition at 100 µM [2]: 87.3 ± 3.4%

With CCC(=O)c1c(O)cc(O)c(CC2=C(O)C(C)(C)C(O)=C(C(C)=O)C2=O)c1O [Compound 16, norflavaspidic acid AP] as the compound, how does the IC50 [2] read?
The IC50 was 64.4 ± 3.5 µM.

And the inhibition at 100 µM [2]?
Its inhibition at 100 µM is 68.3 ± 0.2%.

Which results are given for CCCC(=O)c1c(O)cc(O)c(-c2c(O)cc(O)c(C(=O)CCC)c2O)c1O [Compound 12, bis-phlorobutyrophenone]?
IC50 [2]: > 100 µM; inhibition at 100 µM [2]: 34.1 ± 0.5%

With “1-(2,4,6-trihydroxy-3-methylphenyl)propanone [Compound 7]” as the compound, how does the “Inhibition of Compounds on β-glucuronidase, Inhibition at 100 μM (%)” value [2, 5] read?
The value was 26.7 ± 1.5%.

What about the IC50 [2, 6] of the same compound?
Its IC50 is greater than 100 µM.

With CC(=O)c1c(O)cc(O)cc1O [Compound 1, 2,4,6-trihydroxy-acetophenone] as the compound, how does the IC50 [2] read?
Its IC50 is greater than 100 µM.

What about the inhibition at 100 µM [2] of the same compound?
The inhibition at 100 µM was 11.6 ± 3.9%.

Which IC50 [2] does the source give for CCC(=O)c1c(O)cc(O)c(C(=O)CC)c1O [Compound 5, 1,3-(2,4,6-trihydroxyphenyl)dipropanone] here?
Its IC50 is greater than 100 µM.

And the inhibition at 100 µM [2]?
Its inhibition at 100 µM is 27.1 ± 0.4%.

Which IC50 [2] does the source give for CC(=O)c1c(O)cc(O)c(C(C)=O)c1O [Compound 4, 5-acetyl-2,4,6-trihydroxyacetophenone] here?
The IC50 was greater than 100 µM.

What about the inhibition at 100 µM [2] of the same compound?
Its inhibition at 100 µM is 22.1 ± 2.4%.

Which “Inhibition of Compounds on β-glucuronidase, Inhibition at 100 μM (%)” value [2, 5] does the source give for “1-(2, 4, 6-trihydroxy-3-methylphenyl) butanone [Compound 8]” here?
Its value is 24.9 ± 5.5%.

What about the IC50 [2, 6] of the same compound?
Its IC50 is greater than 100 µM.

Which Ki [3] does the source give for CCCC(=O)C1=C(O)C(C)(C)C(O)=C(Cc2c(O)c(Cc3c(O)c(C)c(O)c(C(=O)CCC)c3O)c(O)c(C(=O)CCC)c2O)C1=O [Compound 28, trisflavaspidic acid BBB] here?
Its Ki is 2.8 µM.

And the “Inhibition Type” value [3]?
Its value is “Competitive”.

And the “activity toward the PTP1B enzyme” value (PTP1B enzyme)?
Its value is “significant activity”.

What about the IC50 [2] of the same compound?
The IC50 was 5.6 ± 1.1 µM.

And the inhibition at 100 µM [2]?
The inhibition at 100 µM was 106 ± 3.4%.

With CCCC(=O)c1c(O)c(C)c(O)c(Cc2c(O)c(CC3=C(O)C(C)(C)C(O)=C(C(C)=O)C3=O)c(O)c(C(=O)CCC)c2O)c1O [Compound 27, trisflavaspidic acid ABB] as the compound, how does the Ki [3] read?
Its Ki is 0.5 µM.

What about the “Inhibition Type” value [3] of the same compound?
The value was “Competitive”.

And the “activity toward the PTP1B enzyme” value (PTP1B enzyme)?
Its value is “significant activity”.

And the IC50 [2]?
Its IC50 is 7.1 ± 2.6 µM.

What about the inhibition at 100 µM [2] of the same compound?
The inhibition at 100 µM was 101.2 ± 0.6%.

With CCC(=O)c1c(O)cc(O)cc1O [Compound 2, 1-(2,4,6-trihydroxy-phenyl)-propan-1-one] as the compound, how does the IC50 [2] read?
Its IC50 is greater than 100 µM.

What about the inhibition at 100 µM [2] of the same compound?
The inhibition at 100 µM was 24.4 ± 0.2%.

With CCCC(=O)c1c(O)cc(O)c(Cc2c(O)cc(O)c(C(=O)CCC)c2O)c1O [Compound 14, methylene-bis-phlorobutyrophenone] as the compound, how does the Ki [3] read?
The Ki was 4.3 µM.

What about the “Inhibition Type” value [3] of the same compound?
Its value is “Competitive”.

What about the IC50 [2] of the same compound?
Its IC50 is 14.4 ± 0.6 µM.

What about the inhibition at 100 µM [2] of the same compound?
Its inhibition at 100 µM is 97.1 ± 0.7%.

With O=C(O)[C@@H](O)[C@H]1OC(=O)[C@H](O)[C@H]1O [DSA, D-saccharic acid 1,4-lactone, reference compound] as the compound, how does the IC50 [2] read?
Its IC50 is 23.4 ± 1.5 µM.

And the inhibition at 100 µM [2]?
Its inhibition at 100 µM is 79 ± 0.3%.

For CCCC(=O)c1c(O)cc(O)cc1O [Compound 3, phlorobutyrophenone], which IC50 [2] is on record?
The IC50 was greater than 100 µM.

What about the inhibition at 100 µM [2] of the same compound?
The inhibition at 100 µM was 22 ± 2.1%.

What does the source list for CCC(=O)c1c(O)c(C)c(O)c(CC2=C(O)C(C)(C)C(O)=C(C(C)=O)C2=O)c1O [Compound 21, flavaspidic acid AP]?
IC50 [2]: > 100 µM; inhibition at 100 µM [2]: 47.9 ± 4.7%

Which Ki [3] does the source give for CCCC(=O)c1c(O)cc(O)c(Cc2c(O)c(C)c(O)c(C(=O)CCC)c2O)c1O [Compound 15, araspidin BB] here?
Its Ki is 25.8 µM.

What about the “Inhibition Type” value [3] of the same compound?
Its value is “Competitive”.

What about the IC50 [2] of the same compound?
Its IC50 is 17 ± 2.5 µM.

And the inhibition at 100 µM [2]?
Its inhibition at 100 µM is 89.1 ± 0.3%.

Which IC50 [2] does the source give for CCCC(=O)c1c(O)cc(O)c(C(=O)CCC)c1O [Compound 6, 1,3-(2,4,6-trihydroxyphenyl)dibutanone] here?
Its IC50 is greater than 100 µM.

And the inhibition at 100 µM [2]?
Its inhibition at 100 µM is 33.7 ± 2.3%.

Which results are given for CCC(=O)c1c(O)c(C(=O)CC)c(O)c(C(=O)CC)c1O [Compound 10, tripropionylphloroglucinol]?
IC50 [2]: > 100 µM; inhibition at 100 µM [2]: 41.4 ± 1.7%

For CCCC(=O)c1c(O)c(C)c(O)c(CC2=C(O)C(C)(C)C(O)=C(C(C)=O)C2=O)c1O [Compound 22, flavaspidic acid AB], which IC50 [2] is on record?
The IC50 was greater than 100 µM.

What about the inhibition at 100 µM [2] of the same compound?
The inhibition at 100 µM was 48.7 ± 4.8%.
